Reference: patent publication US20250222120A1, “SYNTHESIS OF NOVEL SMALL MOLECULE CARM1 DEGRADERS, COMPOUNDS FORMED THEREBY, AND PHARMACEUTICAL COMPOSITIONS CONTAINING THEM” (Wisconsin Alumni Research Foundation, priority 2024, published 2025)

Target: T1, CARM1 (Homo sapiens, UniProt Q86X55)
T1 sequence (Q86X55 1-608): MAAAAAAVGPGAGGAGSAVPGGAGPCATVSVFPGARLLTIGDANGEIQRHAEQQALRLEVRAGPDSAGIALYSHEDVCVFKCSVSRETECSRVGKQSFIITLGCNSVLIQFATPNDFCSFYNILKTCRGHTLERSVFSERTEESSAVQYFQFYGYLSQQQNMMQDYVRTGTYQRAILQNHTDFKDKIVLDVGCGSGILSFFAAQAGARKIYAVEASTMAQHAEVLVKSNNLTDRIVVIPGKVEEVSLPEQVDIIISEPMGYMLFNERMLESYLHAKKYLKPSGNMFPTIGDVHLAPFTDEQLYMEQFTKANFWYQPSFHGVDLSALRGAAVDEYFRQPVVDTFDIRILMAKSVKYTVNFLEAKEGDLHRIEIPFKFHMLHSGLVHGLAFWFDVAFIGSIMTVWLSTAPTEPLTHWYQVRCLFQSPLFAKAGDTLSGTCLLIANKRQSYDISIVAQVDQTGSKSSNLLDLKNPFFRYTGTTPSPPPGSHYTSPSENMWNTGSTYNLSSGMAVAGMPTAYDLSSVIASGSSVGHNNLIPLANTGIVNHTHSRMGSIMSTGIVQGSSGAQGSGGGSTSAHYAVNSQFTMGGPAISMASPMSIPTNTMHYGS
Test: Global proteomics of MCF7 cells, CARM1 level
Type: cell-based
Set-up: we performed a global quantitative proteomic analysis of MCF7 cells using mass spectrometry; endogenous in cells; host or cells: MCF7
Settings: 25 nM, 4 h, versus DMSO
Method: Sample preparation for global proteomics analysis. Sample preparation is similar to the previous report (Ma et al. “Strategy Based on Deglycosylation, Multiprotease, and Hydrophilic Interaction Chromatography for Large-Scale Profiling of Protein Methylation” Anal. Chem. 2017, 89 (23), 12909-12917). Briefly, treated MCF7 cells were harvested by washing with PBS buffer (Gibco, pH 7.4) and lysed in RIPA buffer supplemented with protease inhibitors for 20 min, then protein concentration was determined using a BCA Protein Assay Kit (Thermo Pierce, Rockford, IL) per manufacturer instructions. […] The concentrations of the peptide mixture were measured by peptide assay (Thermo Fisher Scientific). […]
LC-MS/MS data acquisition. Samples were analyzed on an Orbitrap Fusion Lumos Tribrid mass spectrometer (Thermo Fisher Scientific) coupled to a Dionex UltiMate 3000 UPLC system. […]
Data analysis. Protein identification and quantification by MaxQuant (version 1.5.3.8) based database searching, using the integrated Andromeda search engine with FDR <1% at peptide and protein levels. […] For label-free protein quantification (LFQ), the MaxQuant LFQ algorithm was used to quantitate the MS signals, and the proteins' intensities were represented in LFQintesnit (Schaab et al. “Analysis of High Accuracy, Quantitative Proteomics Data in the MaxQB Database” Mol. Cell. Proteomics 2012, 11 (3), M111.014068). […]

CNCCN1CCC(c2cc(CN(C)C(=O)c3cccc(Oc4ccc(OCC(=O)N5CCC(CN6CCC(CN7CCN(CC(=O)N[C@H](C(=O)N8C[C@H](O)C[C@H]8C(=O)N[C@@H](C)c8ccc(-c9scnc9C)cc8)C(C)(C)C)CC7)CC6)CC5)cc4)c3)ccn2)CC1 [Compound 3b, (2S,4R)-1-((S)-3,3-dimethyl-2-(2-(4-((1-((1-(2-(4-(3-(methyl((2-(1-(2-(methylamino)ethyl)piperidin-4-yl)pyridin-4-yl)methyl)carbamoyl)phenoxy)phenoxy)acetyl)piperidin-4-yl)methyl)piperidin-4-yl)methyl)piperazin-1-yl)acetamido)butanoyl)-4-hydroxy-N—((S)-1-(4-(4-methylthiazol-5-yl)phenyl)ethyl)pyrrolidine-2-carboxamide]
CARM1 protein level in proteomics: significant downregulation
